Results as given in US9974306B2, “Herbicidal combinations for tolerant soybean cultures” (priority 2012, dated 2018).

How the values were obtained:
POLCO = experiment: Post-emergence greenhouse treatment, visual rating of herbicidal effect; assay type: in vivo, Polygonum convolvulus; settings: for Effect (%): POLCO, (B1) alone 40 g a.i./ha
Description: (§1) Seeds of grass and broadleaf weeds were sown in pots (diameter: 8 cm) filled with a sandy loam soil. For the herbicide post-emergent treatment, the weeds were grown under optimal conditions up to a growth stage of BBCH 11 (1-2 leaf stage) to 14 (3-4 leaf stage) depending on species. The following weeds were used:
(§2) The applications were performed by post emergence treatments on the planted pots using a spray volume of 300 L water per hectare. The herbicides were applied alone and in combination as in the tables below.
(§3) The trial was conducted in the greenhouse ensuring optimal growing conditions.
(§4) The herbicidal effects were assessed 14 and 24 days following application by visual ratings comparing treated and untreated plants (0%=no effect to 100%=complete die-off).
(§5) The visual ratings are used to calculate interactions between treatments alone and combination treatments according to S. R. Colby, Weeds 15, pages 20 to 22 (1967).

PHBPU = experiment: as above; assay type: in vivo, Pharbitis purpurea
Description: as §1, §2, §3, §4, §5

SORHA = experiment: as above; assay type: in vivo, Sorghum halepense
Description: as §1, §2, §3, §4, §5

BRAPP = experiment: as above; assay type: in vivo, Brachiaria platyphylla; settings: for Effect (%): BRAPP
Description: as §1, §2, §3, §4, §5

GLXMA GM_W336 = experiment: Post-emergence greenhouse treatment, visual rating of effect on W336 transgenic (HPPD inhibitor tolerant) soybean; assay type: in vivo; settings: for Effect (%): GLXMA GM_W336
Description: (§6) The soybeans were grown under the same conditions as described above. The following three varieties were used in the tests:
(§7) 1) W336—Transgenic soybean plants comprising a chimeric gene encoding a W336 mutant HPPD protein of Pseudomonas fluorescens (U.S. Pat. No. 6,245,968) fused to the optimized transit peptide for chloroplast targeting (U.S. Pat. No. 5,510,471), and under the control of the 35S CaMV promoter (Odell et al., 1985, Nature 313: 810-812) fused to the 5′ enhancer sequence of TEV (Carrington and Freed, 1990, J. Virol. 64: 1590-1597), with as 3′ transcript termination and polyadenylation region that of the CaMV 35S gene (Sanfacon et al., 1991, Genes & Development 5:141-149), abbreviated as “W336 soybean plants” herein. 2) MERLIN—conventional 3) PROTINA—conventional
(§8) Two sets of soybeans reaching different growth stages at application time were prepared: one up to growth stage BBCH 11 (1-2 leaf stage) and the other up to BBCH 13 (3-4 leaf stage). Both soybean sets were treated at the same time (together with the weeds) but they were evaluated separately.
as §2, §3, §4, §5

SETVI = experiment: Post-emergence greenhouse treatment, visual rating of herbicidal effect; assay type: in vivo, Setaria viridis; settings: 1-2 leaf; for Effect: 24 d; for Effect (%): SETVI, assessment 24 d
Description: as §1, §2, §3, §4, §5

SETFA = experiment: as above; assay type: in vivo, Setaria faberi; settings: 1-2 leaf
Description: as §1, §2, §3, §4, §5

BIDPI = experiment: as above; assay type: in vivo, Bidens pilosa
Description: as §1, §2, §3, §4, §5

EPHHL = experiment: as above; assay type: in vivo, Euphorbia heterophylla
Description: as §1, §2, §3, §4, §5

GLXMA Protina = experiment: Post-emergence greenhouse treatment, visual rating of effect on conventional soybean PROTINA; assay type: in vivo; settings: for Effect (%): GLXMA Protina
Description: as §6, §7, §8, §2, §3, §4, §5

GLXMA Merlin = experiment: Post-emergence greenhouse treatment, visual rating of effect on conventional soybean MERLIN; assay type: in vivo; settings: for Effect (%): GLXMA Merlin, assessment 24 d
Description: as §6, §7, §8, §2, §3, §4, §5

[1] = 1-2 leaf, 24 d, 80 g a.i./ha alone
[2] = 3-4 leaf, 14 d, 20 g a.i./ha alone
[3] = 3-4 leaf, 14 d, 80 g a.i./ha alone
[4] = 1-2 leaf, 24 d, 20 g a.i./ha alone
[5] = 1-2 leaf, 14 d, 20 g a.i./ha alone
[6] = 1-2 leaf, 24 d, 40 g a.i./ha alone
[7] = 1-2 leaf, assessment 24 d, (B1) alone 40 g a.i./ha
[8] = 1-2 leaf, assessment 24 d, (B1) alone 80 g a.i./ha
[9] = 3-4 leaf, assessment 14 d, (B1) alone 20 g a.i./ha
[10] = 3-4 leaf, assessment 14 d, (B1) alone 40 g a.i./ha

## CSc1nnc(C(C)(C)C)c(=O)n1N [(B1), 4-amino-6-tert-butyl-4,5-dihydro-3-methylthio-1,2,4-triazin-5-one]
POLCO; [1]
  Effect: 20%
POLCO; [2]
  Effect: 10%
POLCO; [3]
  Effect: 40%
POLCO; 3-4 leaf, 14 d, 20 g a.i./ha
  Effect: 10%
POLCO; 3-4 leaf, 24 d, 20 g a.i./ha
  Effect: 10%
POLCO; 1-2 leaf, assessment 24 d
  Effect (%): 15%
POLCO; 3-4 leaf, assessment 14 d
  Effect (%): 40%
PHBPU; [4]
  Effect: 0%
PHBPU; 1-2 leaf, 24 d, 40 g a.i./ha
  Effect: 0%
PHBPU; 3-4 leaf, 14 d, 40 g a.i./ha
  Effect: 10%
SORHA; [1]
  Effect: 10%
SORHA; 1-2 leaf, 14 d, 80 g a.i./ha
  Effect: 20%
SORHA; 1-2 leaf, 24 d, 80 g a.i./ha
  Effect: 10%
SORHA; [2]
  Effect: 20%
SORHA; [3]
  Effect: 20%
SORHA; 3-4 leaf, 14 d, 20 g a.i./ha
  Effect: 20%
SORHA; 3-4 leaf, 24 d, 20 g a.i./ha
  Effect: 0%
SORHA; SORHA, 1-2 leaf, assessment 24 d, (B1) alone 40 g a.i./ha
  Effect (%): 10%
BRAPP; [5]
  Effect: 15%
BRAPP; [4]
  Effect: 10%
BRAPP; [6]
  Effect: 10%
BRAPP; 3-4 leaf, 14 d, 20 g a.i./ha
  Effect: 15%
BRAPP; 3-4 leaf, 14 d, 40 g a.i./ha
  Effect: 45%
BRAPP; 3-4 leaf, 24 d, 20 g a.i./ha
  Effect: 10%
BRAPP; [7]
  Effect (%): 10%
BRAPP; [8]
  Effect (%): 35%
BRAPP; [9]
  Effect (%): 15%
BRAPP; [10]
  Effect (%): 45%
GLXMA GM_W336; [5]
  Effect: 20%
GLXMA GM_W336; [4]
  Effect: 10%
GLXMA GM_W336; [6]
  Effect: 10%
GLXMA GM_W336; [1]
  Effect: 30%
GLXMA GM_W336; 1-2 leaf, 14 d, 80 g a.i./ha
  Effect: 25%
GLXMA GM_W336; 1-2 leaf, 24 d, 40 g a.i./ha
  Effect: 10%
GLXMA GM_W336; 1-2 leaf, 24 d, 80 g a.i./ha
  Effect: 30%
GLXMA GM_W336; [2]
  Effect: 35%
GLXMA GM_W336; [3]
  Effect: 35%
GLXMA GM_W336; 3-4 leaf, 14 d, 20 g a.i./ha
  Effect: 35%
GLXMA GM_W336; 3-4 leaf, 14 d, 40 g a.i./ha
  Effect: 35%
GLXMA GM_W336; 3-4 leaf, 24 d, 20 g a.i./ha
  Effect: 30%
GLXMA GM_W336; [7]
  Effect (%): 10%
GLXMA GM_W336; [8]
  Effect (%): 30%
GLXMA GM_W336; [9]
  Effect (%): 35%
GLXMA GM_W336; [10]
  Effect (%): 35%
SETVI; 80 g a.i./ha alone
  Effect: 10%
SETVI; 80 g a.i./ha
  Effect: 10%
SETVI; (B1) alone 40 g a.i./ha
  Effect (%): 50%
SETVI; (B1) alone 80 g a.i./ha
  Effect (%): 10%
SETFA; 14 d, 80 g a.i./ha
  Effect: 30%
SETFA; 24 d, 40 g a.i./ha
  Effect: 10%
SETFA; SETFA, assessment 24 d, (B1) alone 40 g a.i./ha
  Effect (%): 10%
BIDPI; [4]
  Effect: 5%
BIDPI; [6]
  Effect: 45%
BIDPI; 3-4 leaf, 14 d, 20 g a.i./ha
  Effect: 40%
BIDPI; 3-4 leaf, 24 d, 20 g a.i./ha
  Effect: 5%
BIDPI; BIDPI, 3-4 leaf, assessment 14 d, (B1) alone 20 g a.i./ha
  Effect (%): 40%
EPHHL; [5]
  Effect: 45%
EPHHL; [4]
  Effect: 20%
EPHHL; [1]
  Effect: 65%
EPHHL; 3-4 leaf, 24 d, 20 g a.i./ha
  Effect: 20%
GLXMA Protina; [5]
  Effect: 20%
GLXMA Protina; [4]
  Effect: 15%
GLXMA Protina; [6]
  Effect: 15%
GLXMA Protina; [1]
  Effect: 40%
GLXMA Protina; 1-2 leaf, 14 d, 80 g a.i./ha
  Effect: 40%
GLXMA Protina; 1-2 leaf, 24 d, 80 g a.i./ha
  Effect: 40%
GLXMA Protina; [2]
  Effect: 25%
GLXMA Protina; 3-4 leaf, 14 d, 20 g a.i./ha
  Effect: 25%
GLXMA Protina; 3-4 leaf, 14 d, 40 g a.i./ha
  Effect: 35%
GLXMA Protina; 3-4 leaf, 24 d, 20 g a.i./ha
  Effect: 35%
GLXMA Protina; [7]
  Effect (%): 15%
GLXMA Protina; [9]
  Effect (%): 25%
GLXMA Protina; [10]
  Effect (%): 35%
GLXMA Merlin; 1-2 leaf, 24 d, 40 g a.i./ha
  Effect: 0%
GLXMA Merlin; [3]
  Effect: 50%
GLXMA Merlin; 3-4 leaf, 24 d, 20 g a.i./ha
  Effect: 40%
GLXMA Merlin; 1-2 leaf, (B1) alone 40 g a.i./ha
  Effect (%): 0%
GLXMA Merlin; 1-2 leaf, (B1) alone 80 g a.i./ha
  Effect (%): 10%
